Results as given in patent publication US9150577B2, “Heterocyclic compounds containing an indole core” (Boehringer Ingelheim International GmbH, priority 2009, dated 2015).
pIC50: −log10 of the molar value.

These compounds were tested against Human RSK2 (Homo sapiens (Human), UniProt P51812) (assay: Human RSK2 assay (Kinase Glo Plus, residual ATP);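 further: recombinant human RSK2 phosphorylating a substrate peptide, 90 min at 28 °C, leftover ATP read by luminescence, RLU scaled between no-kinase background and uninhibited kinase controls, 4-parameter fit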).
Assay type: biochemical

Chain of Human RSK2 (P51812 whole entry): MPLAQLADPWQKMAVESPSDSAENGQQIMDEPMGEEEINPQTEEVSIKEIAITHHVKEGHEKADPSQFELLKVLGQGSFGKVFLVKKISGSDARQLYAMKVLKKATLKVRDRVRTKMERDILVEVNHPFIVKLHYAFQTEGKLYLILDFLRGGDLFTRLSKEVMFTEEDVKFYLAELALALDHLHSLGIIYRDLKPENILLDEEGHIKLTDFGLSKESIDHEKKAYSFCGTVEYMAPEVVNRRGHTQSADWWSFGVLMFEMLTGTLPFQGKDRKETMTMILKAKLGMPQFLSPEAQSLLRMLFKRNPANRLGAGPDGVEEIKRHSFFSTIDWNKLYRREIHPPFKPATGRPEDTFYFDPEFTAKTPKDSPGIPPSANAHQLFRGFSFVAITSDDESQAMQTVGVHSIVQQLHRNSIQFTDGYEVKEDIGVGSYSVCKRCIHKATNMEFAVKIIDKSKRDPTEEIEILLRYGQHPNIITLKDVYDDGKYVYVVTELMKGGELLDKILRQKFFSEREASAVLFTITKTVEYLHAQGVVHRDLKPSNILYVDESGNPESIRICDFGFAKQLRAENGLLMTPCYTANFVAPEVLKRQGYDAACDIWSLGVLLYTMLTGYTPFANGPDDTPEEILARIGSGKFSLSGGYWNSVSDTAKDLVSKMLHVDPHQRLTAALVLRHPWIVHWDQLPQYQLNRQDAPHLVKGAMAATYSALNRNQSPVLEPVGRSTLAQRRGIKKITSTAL

| SMILES | pIC50 |
| --- | --- |
| Cn1cc(NC(=O)c2ccc3cc4n(c3c2)CC(C)(C)CNC4=O)cn1 [Example 163, 4,4-dimethyl-N-(1-methyl-1H-pyrazol-4-yl)-1-oxo-2,3,4,5-tetrahydro-1H-[1,4]diazepino[1,2-a]indole-8-carboxamide] | 6.47 |
| C[C@@H]1NC(=O)c2cc3ccc(C(=O)Nc4cnn(Cc5ccccc5)c4)cc3n2[C@@H]1C [Example 140, (3S,4R)-N-(1-benzyl-1H-pyrazol-4-yl)-3,4-dimethyl-1-oxo-1,2,3,4-tetrahydropyrazino[1,2-a]indole-7-carboxamide] | 9.38 |
| O=C(Nc1cc(C2CCCCC2)no1)c1ccc2cc3n(c2c1)CCCNC3=O [Example 209, N-(3-cyclohexyl-1,2-oxazol-5-yl)-1-oxo-2,3,4,5-tetrahydro-1H-[1,4]diazepino[1,2-a]indole-8-carboxamide] | 7.41 |
| CC1CNC(=O)c2cc3ccc(C(=O)Nc4nc5ccccc5n4CCCN(C)C)cc3n2C1 (centres unmarked) [Example 101, N-{1-[3-(dimethylamino)propyl]-1H-benzimidazol-2-yl}-4-methyl-1-oxo-2,3,4,5-tetrahydro-1H-[1,4]diazepino[1,2-a]indole-8-carboxamide] | 7.89 |
| CN(C)CCCn1c(NC(=O)c2ccc3cc4n(c3c2)CC2(CCC2)CNC4=O)nc2ccccc21 [Example 97, N-{1-[3-(dimethylamino)propyl]-1H-benzimidazol-2-yl}-1′-oxo-2′,3′-dihydro-1′H-spiro[cyclobutane-1,4′-[1,4]diazepino[1,2-a]indole]-8′-carboxamide] | 7.96 |
| COc1ccnc(NC(=O)c2ccc3cc4n(c3c2)CCCNC4=O)c1 [Example 206, N-(4-methoxypyridin-2-yl)-1-oxo-2,3,4,5-tetrahydro-1H-[1,4]diazepino[1,2-a]indole-8-carboxamide] | 7.02 |
| CC(=O)c1cccc(NC(=O)c2ccc3cc4n(c3c2)CCCNC4=O)c1 [Example 187, N-(3-acetylphenyl)-1-oxo-2,3,4,5-tetrahydro-1H-[1,4]diazepino[1,2-a]indole-8-carboxamide] | 6.80 |
| N#Cc1ccc2[nH]c(NC(=O)c3ccc4cc5n(c4c3)CCCNC5=O)nc2c1 [Example 41, N-(5-cyano-1H-benzimidazol-2-yl)-1-oxo-2,3,4,5-tetrahydro-1H-[1,4]diazepino[1,2-a]indole-8-carboxamide] | 8.31 |
| Cn1c(-c2ccccc2)cnc1NC(=O)c1ccc2cc3n(c2c1)CCCNC3=O [Example 107, N-(1-methyl-5-phenyl-1H-imidazol-2-yl)-1-oxo-2,3,4,5-tetrahydro-1H-[1,4]diazepino[1,2-a]indole-8-carboxamide] | 6.30 |
| Cn1ccc(NC(=O)c2ccc3cc4n(c3c2)CCCNC4=O)n1 [Example 11, N-(1-methyl-1H-pyrazol-3-yl)-1-oxo-2,3,4,5-tetrahydro-1H-[1,4]diazepino[1,2-a]indole-8-carboxamide] | 6.27 |
| C[C@H]1NC(=O)c2cc3ccc(C(=O)Nc4cccnc4)cc3n2[C@H]1C (relative stereo) [Example 179, Cis-3,4-dimethyl-1-oxo-N-(pyridin-3-yl)-1,2,3,4-tetrahydropyrazino[1,2-a]indole-7-carboxamide] | 7.35 |
| C[C@H]1NC(=O)c2cc3ccc(C(=O)Nc4nc5ccccc5n4CCCN(C)C)cc3n2[C@H]1C [Example 141, (3R,4S)-N-{1-[3-(dimethylamino)propyl]-1H-benzimidazol-2-yl}-3,4-dimethyl-1-oxo-1,2,3,4-tetrahydropyrazino[1,2-a]indole-7-carboxamide] | 7.86 |
| O=C(Nc1cnn(Cc2ccccc2)c1)c1ccc2cc3n(c2c1)CC1(CCOCC1)CNC3=O [Example 31, N-(1-benzyl-1H-pyrazol-4-yl)-1-oxo-2,2′,3,3′,5′,6′-hexahydro-1H-spiro[1,4-diazepino[1,2-a]indole-4,4′-pyran]-8-carboxamide] | 6.05 |
| CC(C)(C)c1cc(NC(=O)c2ccc3cc4n(c3c2)CCCNC4=O)sn1 [Example 3, N-(3-tert-butyl-1,2-thiazol-5-yl)-1-oxo-2,3,4,5-tetrahydro-1H-[1,4]diazepino[1,2-a]indole-8-carboxamide] | 6.62 |
| CC(C)n1c(NC(=O)c2ccc3cc4n(c3c2)C(C)CNC4=O)nc2ccccc21 (centres unmarked) [Example 74, 4-methyl-1-oxo-N-[1-(propan-2-yl)-1H-benzimidazol-2-yl]-1,2,3,4-tetrahydropyrazino[1,2-a]indole-7-carboxamide] | 8.14 |
| O=C(Nc1cn[nH]c1)c1ccc2cc3n(c2c1)CCCNC3=O [Example 15, 1-oxo-N-(1H-pyrazol-4-yl)-2,3,4,5-tetrahydro-1H-[1,4]diazepino[1,2-a]indole-8-carboxamide] | 7.37 |
| O=C(Nc1ccc2scnc2c1)c1ccc2cc3n(c2c1)CCCNC3=O [Example 203, N-(1,3-benzothiazol-5-yl)-1-oxo-2,3,4,5-tetrahydro-1H-[1,4]diazepino[1,2-a]indole-8-carboxamide] | 6.74 |
| CC(C)n1c(NC(=O)c2ccc3cc4n(c3c2)[C@H](C)CNC4=O)nc2ccccc21 [Example 68, (4R)-4-methyl-1-oxo-N-[1-(propan-2-yl)-1H-benzimidazol-2-yl]-1,2,3,4-tetrahydropyrazino[1,2-a]indole-7-carboxamide] | 8.72 |

| SMILES | pIC50 |
| --- | --- |
| O=C(Nc1ccccc1)c1ccc2cc3n(c2c1)CCCNC3=O [Example 178, 1-oxo-N-phenyl-2,3,4,5-tetrahydro-1H-[1,4]diazepino[1,2-a]indole-8-carboxamide] | 6.54 |
| Cn1cc(NC(=O)c2ccc3cc4n(c3c2)C(C)(C)CNC4=O)nc1C(=O)NC1CCCC1 [Example 233, N-[2-(cyclopentylcarbamoyl)-1-methyl-1H-imidazol-4-yl]-4,4-dimethyl-1-oxo-1,2,3,4-tetrahydropyrazino[1,2-a]indole-7-carboxamide] | 8.43 |
| CC1CCNC(=O)c2cc3ccc(C(=O)Nc4cccnc4)cc3n21 (centres unmarked) [Example 10, 5-methyl-1-oxo-N-(pyridin-3-yl)-2,3,4,5-tetrahydro-1H-[1,4]diazepino[1,2-a]indole-8-carboxamide] | 7.39 |
| C[C@@H]1NC(=O)c2cc3ccc(C(=O)Nc4nc5ccccc5n4CCCN(C)C)cc3n2[C@@H]1C [Example 139, (3S,4R)-N-{1-[3-(dimethylamino)propyl]-1H-benzimidazol-2-yl}-3,4-dimethyl-1-oxo-1,2,3,4-tetrahydropyrazino[1,2-a]indole-7-carboxamide] | 9.74 |
| CC(C)n1c(NC(=O)c2ccc3cc4n(c3c2)C(C)(C)CNC4=O)nc2ccccc21 [Example 73, 4,4-dimethyl-1-oxo-N-[1-(propan-2-yl)-1H-benzimidazol-2-yl]-1,2,3,4-tetrahydropyrazino[1,2-a]indole-7-carboxamide] | 8.70 |
| C[C@H]1CNC(=O)c2cc3ccc(C(=O)Nc4cnn(Cc5ccccc5)c4)cc3n2[C@H]1C (relative stereo) [Example 136, N-(1-benzyl-1H-pyrazol-4-yl)-cis-4,5-dimethyl-1-oxo-2,3,4,5-tetrahydro-1H-[1,4]diazepino[1,2-a]indole-8-carboxamide] | 8.03 |
| CC(C)(CO)n1c(NC(=O)c2ccc3cc4n(c3c2)CCCNC4=O)nc2ccccc21 [Example 66, N-[1-(1-hydroxy-2-methylpropan-2-yl)-1H-benzimidazol-2-yl]-1-oxo-2,3,4,5-tetrahydro-1H-[1,4]diazepino[1,2-a]indole-8-carboxamide] | 6.21 |
| O=C(Nc1cnn(C2CCOC2)c1)c1ccc2cc3n(c2c1)CCCNC3=O (centres unmarked) [Example 26, 1-oxo-N-[1-(tetrahydrofuran-3-yl)-1H-pyrazol-4-yl]-2,3,4,5-tetrahydro-1H-[1,4]diazepino[1,2-a]indole-8-carboxamide] | 7.57 |
| CC(C)n1ncc2cc(NC(=O)c3ccc4cc5n(c4c3)CCCNC5=O)cnc21 [Example 19, 1-oxo-N-[1-(propan-2-yl)-1H-pyrazolo[3,4-b]pyridin-5-yl]-2,3,4,5-tetrahydro-1H-[1,4]diazepino[1,2-a]indole-8-carboxamide] | 7.28 |
| CC1(C)CNC(=O)c2cc3ccc(C(=O)Nc4cnn(Cc5ccccc5)c4)cc3n2C1 [Example 122, N-(1-benzyl-1H-pyrazol-4-yl)-4,4-dimethyl-1-oxo-2,3,4,5-tetrahydro-1H-[1,4]diazepino[1,2-a]indole-8-carboxamide] | 6.96 |
| O=C(Nc1cccc(-c2cc[nH]n2)c1)c1ccc2cc3n(c2c1)CCCNC3=O [Example 227, 1-oxo-N-[3-(1H-pyrazol-3-yl)phenyl]-2,3,4,5-tetrahydro-1H-[1,4]diazepino[1,2-a]indole-8-carboxamide] | 7.39 |
| C[C@H]1CNC(=O)c2cc3ccc(C(=O)Nc4cnn(Cc5ccccc5)c4)cc3n21 [Example 133, (4S)-N-(1-benzyl-1H-pyrazol-4-yl)-4-methyl-1-oxo-1,2,3,4-tetrahydropyrazino[1,2-a]indole-7-carboxamide] | 7.76 |
| Cc1cc(NC(=O)c2ccc3cc4n(c3c2)CCCNC4=O)no1 [Example 2, N-(5-methyl-1,2-oxazol-3-yl)-1-oxo-2,3,4,5-tetrahydro-1H-[1,4]diazepino[1,2-a]indole-8-carboxamide] | 7.52 |
| Cc1cc(NC(=O)c2ccc3cc4n(c3c2)[C@@H](C)CNC4=O)no1 [Example 132, (4S)-4-methyl-N-(5-methyl-1,2-oxazol-3-yl)-1-oxo-1,2,3,4-tetrahydropyrazino[1,2-a]indole-7-carboxamide] | 6.31 |
| CC(=O)N1CCC(n2c(NC(=O)c3ccc4cc5n(c4c3)CCCNC5=O)nc3ccccc32)CC1 [Example 78, N-[1-(1-acetylpiperidin-4-yl)-1H-benzimidazol-2-yl]-1-oxo-2,3,4,5-tetrahydro-1H-[1,4]diazepino[1,2-a]indole-8-carboxamide] | 7.24 |
| O=C(Nc1cccc(Cl)c1)c1ccc2cc3n(c2c1)CCCNC3=O [Example 1, N-(3-chlorophenyl)-1-oxo-2,3,4,5-tetrahydro-1H-[1,4]diazepino[1,2-a]indole-8-carboxamide] | 6.57 |
| CN(C)CCCn1c(NC(=O)c2ccc3cc4n(c3c2)CC(C)(C)CNC4=O)nc2cc(Cl)ccc21 [Example 50, N-{5-chloro-1-[3-(dimethylamino)propyl]-1H-benzimidazol-2-yl}-4,4-dimethyl-1-oxo-2,3,4,5-tetrahydro-1H-[1,4]diazepino[1,2-a]indole-8-carboxamide] | 7.47 |
